This note sets out measurements from ChEMBL document CHEMBL1121476, “Diaryl amidine derivatives as oncornaviral DNA polymerase inhibitors” (J Med Chem, 1980).

Values after ≈ are worked out from the molar mass of the structure shown.

One assay concerns Nucleic Acid. The assay can be described thus: Compound was evaluated for 50% inhibitory dose against oncornaviral DNA polymerase activity of moloney murine leukemia virus. Type of assay: functional.
On to `N=C(N)c1ccc(/N=N/Nc2ccc(C(=N)N)cc2)cc1`, for which the ID50 was found to be 11 µg/mL (≈ 39.1 µM).

The next assay has as its target Gag-Pol polyprotein (Moloney murine leukemia virus isolate Shinnick) (UniProt P03355).
Description: Inhibitory dose against oncornaviral DNA polymerase activity of moloney murine leukemia virus
The compound `N=C(N)Nc1ccc(-c2cc3cc(NC(=N)N)ccc3o2)cc1` came in with an ID50 of 8 µg/mL (≈ 25.9 µM). `N=C(N)c1cccc(Oc2ccc(-c3cc4ccc(C(=N)N)cc4[nH]3)cc2)c1`: the ID50 came to 6 µg/mL (≈ 16.2 µM). Take `CN(C)/C=N/c1ccc(-c2cc3cc(/N=C/N(C)C)ccc3o2)cc1`: the ID50 came out at 40 µg/mL (≈ 120 µM). On the same count and under the same terms, with `N=C(N)c1ccc2[nH]c(/C=C/c3cc4cc(C(=N)N)ccc4o3)cc2c1` the figure was 1.4 µg/mL (≈ 4.08 µM).

Consider `N=C(N)c1ccc2oc(/C=C/C=C/C=C/c3cc4cc(C(=N)N)ccc4o3)cc2c1`, for which the ID50 was determined as 1.6 µg/mL (≈ 4.04 µM). `N=C(N)c1ccc(C2Cc3cc(C(=N)N)ccc3S2(=O)=O)cc1` (centres undefined): the ID50 came out at 90 µg/mL (≈ 274 µM). On the same count and under the same terms, to `N=C(N)c1ccc(Oc2ccc(/C=C/c3cc4cc(C(=N)N)ccc4o3)cc2)cc1` belongs 14 µg/mL (≈ 35.3 µM).

`N=C(N)c1ccc2sc(/C=C/c3cc4cc(C(=N)N)ccc4s3)cc2c1` showed an ID50 of 11 µg/mL (≈ 29.2 µM).

`N=C(N)c1ccc2oc(/C=C/c3cc4ccc(C(=N)N)cc4o3)cc2c1` yielded an ID50 of 1.2 µg/mL (≈ 3.48 µM). As for `C/C(=C\c1cc2cc(C(=N)N)ccc2o1)c1ccc(C(=N)N)cc1`, the ID50 was 4 µg/mL (≈ 12.6 µM). Regarding `N=C(N)Nc1ccc(-c2cc3ccc(NC(=N)N)cc3s2)cc1`, the ID50 was determined as 6 µg/mL (≈ 18.5 µM). Consider `CC[n+]1c(-c2ccccc2)c2cc(N)ccc2c2ccc(N)cc21`, for which the ID50 was determined as 1.2 µg/mL. `N=C(N)c1ccc2cc(C(=N)N)[nH]c2c1` returned an ID50 of 70 µg/mL (≈ 348 µM). Compound `N=C(N)c1ccc(-c2cc3cc(C(=N)N)ccc3s2)cc1` came in with an ID50 of 5 µg/mL (≈ 17 µM).

In turn, `C(=C\c1cc2cc(C3=NCCN3)ccc2o1)/c1cc2cc(C3=NCCN3)ccc2o1` gave an ID50 of 1.1 µg/mL (≈ 2.77 µM). On the same count and under the same terms, to `N=C(N)c1cccc(-c2cc3ccc(C(=N)N)cc3[nH]2)c1` belongs 8 µg/mL (≈ 28.8 µM); to `N=C(N)c1ccc(-c2ccc(-c3ccc(C(=N)N)cc3)o2)cc1`, 6 µg/mL (≈ 19.7 µM). As to `O=C(Nc1ccc(C2=NCCN2)cc1)c1ccc(C(=O)Nc2ccc(C3=NCCN3)cc2)cc1`, the ID50 came to 200 µg/mL (≈ 442 µM). On the same count and under the same terms, to `C(/C=C/c1cc2cc(C3=NCCN3)ccc2o1)=C\c1ccc(C2=NCCN2)cc1` belongs 4 µg/mL (≈ 10.5 µM). Compound `N=C(N)Nc1ccc(-c2cc3cc(NC(=N)N)ccc3s2)cc1` returned an ID50 of 11 µg/mL (≈ 33.9 µM).

`C(=C\c1cc2cc(C3=NCCN3)ccc2o1)/c1ccc(Oc2ccc(C3=NCCN3)cc2)cc1` gave an ID50 of 9 µg/mL (≈ 20.1 µM). Still for that read-out and setting: with `C(=C\c1cc2cc(C3=NCCN3)ccc2o1)/c1ccc(C2=NCCN2)cc1` the figure was 6 µg/mL (≈ 16.8 µM); with `C/C(=C\c1cc2cc(C(=N)N)ccc2o1)c1cc2cc(C(=N)N)ccc2o1`, 14 µg/mL (≈ 39.1 µM). In the case of `N=C(N)c1cccc(-c2cc3cc(C(=N)N)ccc3[nH]2)c1`, the ID50 was 4 µg/mL (≈ 14.4 µM). On the same count and under the same terms, to `N=C(N)c1ccc(OCCCCCOc2ccc(C(=N)N)cc2)cc1` belongs 100 µg/mL (≈ 294 µM); to `c1cc(-c2cc3ccc(C4=NCCN4)cc3[nH]2)ccc1C1=NCCN1`, 6 µg/mL (≈ 18.2 µM); to `N=C(N)c1ccc2cc(/C=C/c3cc4ccc(C(=N)N)cc4o3)oc2c1`, 1.6 µg/mL (≈ 4.65 µM). With `N=C(N)c1ccc2[nH]c(/C=C/c3nc4cc(C(=N)N)ccc4[nH]3)nc2c1`, the ID50 was 100 µg/mL (≈ 290 µM). Still for that read-out and setting: with `N=C(N)c1ccc2c(c1)[nH]c1c3cc(C(=N)N)ccc3sc21` the figure was 1.2 µg/mL (≈ 3.9 µM). On the same count and under the same terms, to `N=C(N)N/N=C/c1ccc2cc(-c3ccc(/C=N/N=C(N)N)cc3)sc2c1` belongs 2 µg/mL (≈ 5.28 µM); to `N=C(N)c1ccc(N/N=N/c2ccc(-c3cc4cc(C(=N)N)ccc4o3)cc2)cc1`, 1.3 µg/mL (≈ 3.27 µM); to `N=C(N)c1ccc(-c2ccc(-c3ccc(C(=N)N)cc3)[nH]2)cc1`, 6.5 µg/mL (≈ 21.4 µM).

As to `N=C(N)c1ccc(/C=C/c2cc3cc(C(=N)N)ccc3o2)cc1`, the ID50 is 8 µg/mL (≈ 26.3 µM). In turn, `c1cc(C2=NCCN2)ccc1Oc1ccc(-c2cc3ccc(C4=NCCN4)cc3[nH]2)cc1` had an ID50 of 1.4 µg/mL (≈ 3.32 µM). Compound `N=C(N)c1ccc2oc(/C=C/c3cc4cc(C(=N)N)ccc4s3)cc2c1` returned an ID50 of 4 µg/mL (≈ 11.1 µM).

Turning to `N=C(N)c1ccc2oc(/C=C/c3cc4ccc(C(=N)N)cc4[nH]3)cc2c1`, the ID50 was found to be 1.1 µg/mL (≈ 3.2 µM).

With `N=C(N)c1ccc(-c2ccc(-c3ccc(C(=N)N)cc3)s2)cc1`, the ID50 is 1.2 µg/mL (≈ 3.75 µM).

As for `N=C(N)c1ccc2oc(-c3ccc(N)cc3)cc2c1`, the ID50 was 270 µg/mL (≈ 1070 µM). Same read-out and setting: to `N=C(N)c1ccc(Oc2ccc(-c3cc4ccc(C(=N)N)cc4[nH]3)cc2)cc1` belongs 250 µg/mL (≈ 677 µM); to `c1cc(-c2cc3ccc(C4=NCCN4)cc3s2)ccc1C1=NCCN1`, 1.2 µg/mL (≈ 3.46 µM); to `N=C(N)c1ccc2oc(CCc3cc4cc(C(=N)N)ccc4o3)cc2c1`, 12 µg/mL (≈ 34.6 µM). `N=C(N)c1ccc(-c2nnc(-c3ccc(C(=N)N)cc3)o2)cc1` displayed an ID50 of 28 µg/mL (≈ 91.4 µM). Still for that read-out and setting: with `N=C(N)c1ccc2oc(/C=C/C=C/c3cc4cc(C(=N)N)ccc4o3)cc2c1` the figure was 3 µg/mL (≈ 8.1 µM); with `N=C(N)c1ccc(-c2sc3ccc(C(=N)N)cc3c2N)cc1`, 8 µg/mL (≈ 25.9 µM). As to `CCN(CC)CCOc1ccc2c(c1)C(=O)c1cc(OCCN(CC)CC)ccc1-2`, the ID50 amounted to 75 µg/mL (≈ 183 µM). For the compound `c1cc(-c2cc3cc(C4=NCCN4)ccc3s2)ccc1C1=NCCN1`, the ID50 was determined as 2.8 µg/mL (≈ 8.08 µM). For `Cc1c(/C=C/c2oc3ccc(C(=N)N)cc3c2C)oc2ccc(C(=N)N)cc12`, the ID50 worked out at 8 µg/mL (≈ 21.5 µM). As to `N=C(N)c1ccc(/C=C/c2ccc(C(=N)N)cc2)cc1`, the ID50 worked out at 12 µg/mL (≈ 45.4 µM).

Compound `CC(Cc1cc2cc(C(=N)N)ccc2o1)c1cc2cc(C(=N)N)ccc2o1` (centres undefined) had an ID50 of 15 µg/mL (≈ 41.6 µM).

For the compound `N=C(N)c1ccc2oc(-c3c[nH]c(-c4cc5cc(C(=N)N)ccc5o4)n3)cc2c1`, the ID50 turned out to be 2 µg/mL (≈ 5.2 µM).

`N=C(N)c1ccc2oc(C(=O)Nc3ccc(C4=NCCN4)cc3)cc2c1` gave an ID50 of 10 µg/mL (≈ 28.8 µM). On the same count and under the same terms, with `N=C(N)c1ccc(NC(=O)c2cc3cc(C(=N)N)ccc3o2)cc1` the figure was 7.5 µg/mL (≈ 23.3 µM); with `C(/C=C/c1cc2cc(C3=NCCN3)ccc2o1)=C\c1cc2cc(C3=NCCN3)ccc2o1`, 1 µg/mL (≈ 2.37 µM); with `N=C(N)c1ccc(-c2cc3ccc(C(=N)N)cc3s2)cc1`, 4 µg/mL (≈ 13.6 µM). Turning to `N=C(N)c1ccc2[nH]c(-c3cc4cc(C(=N)N)ccc4o3)cc2c1`, the ID50 is 0.9 µg/mL (≈ 2.84 µM). Same read-out and setting: with `c1cc(Oc2ccc(-c3cc4ccc(C5=NCCN5)cc4[nH]3)cc2)cc(C2=NCCN2)c1` the figure was 3 µg/mL (≈ 7.12 µM). Still for that read-out and setting: to `N=C(N)c1ccc(-c2c[nH]c(-c3ccc(C(=N)N)cc3)n2)cc1` belongs 10 µg/mL (≈ 32.9 µM); to `N=C(N)c1ccc(/C=C/c2cc3ccc(C(=N)N)cc3[nH]2)cc1`, 6 µg/mL (≈ 19.8 µM). On to `C(=C\c1cc2ccc(C3=NCCN3)cc2[nH]1)/c1ccc(Oc2ccc(C3=NCCN3)cc2)cc1`, for which the ID50 was 1.6 µg/mL (≈ 3.58 µM). On the same count and under the same terms, to `N=C(N)c1ccc(N/N=C/c2cc3cc(C(=N)N)ccc3o2)cc1` belongs 7.5 µg/mL (≈ 23.4 µM); to `N=C(N)c1ccc(-c2cc3ccc(C(=N)N)cc3[nH]2)cc1`, 5 µg/mL (≈ 18 µM); to `N=C(N)c1ccc(Oc2ccc(/C=C/c3cc4ccc(C(=N)N)cc4[nH]3)cc2)cc1`, 1.4 µg/mL (≈ 3.54 µM). Consider `N=C(N)c1ccc(/C=C/C=C/C=C/c2cc3cc(C(=N)N)ccc3o2)cc1`, for which the ID50 came to 1.6 µg/mL (≈ 4.49 µM). `N=C(N)c1cccc(-c2cc3cc(C(=N)N)ccc3s2)c1` came in with an ID50 of 6 µg/mL (≈ 20.4 µM).

Consider `N=C(N)c1cccc(-c2cc3ccc(C(=N)N)cc3s2)c1`, for which the ID50 was 8 µg/mL (≈ 27.2 µM). The same measure, in the same setting: to `N=C(N)c1ccc(/C=C/C=C/c2cc3cc(C(=N)N)ccc3o2)cc1` belongs 0.9 µg/mL (≈ 2.72 µM). Same read-out and setting: to `N=C(N)c1ccc(CCc2cc3cc(C(=N)N)ccc3o2)cc1` belongs 120 µg/mL (≈ 392 µM); to `N=C(N)c1ccc(-c2[nH]c3cc(C(=N)N)ccc3c2N)cc1`, 12 µg/mL (≈ 41 µM).
